Experimental data reported in patent US20250270213A1, “PI3Ka INHIBITORS” (Synnovation Therapeutics, Inc., priority 2022, published 2025).

Assays:
Assay type in all cases: cell-based
SKBR3 (PIK3CA WT) cells = test: pS473 AKT assay, SKBR3 cells; conditions: Homo sapiens, SK-BR-3, pSer473 AKT, complete medium with 10% fetal bovine serum, 2 h treatment, read-out: SKBR3_IC50
Procedure: (§1) Example A. pS473 AKT Assay Protocol
(§2) SKBR3 (PIK3CA WT), MCF7 (PIK3CA E545K), and T47D (PIK3CA H1047R) cells were cultured using 10-cm petri dishes with recommended medium plus 10% fetal bovine serum. One day before the assay, cells were seeded in 96-well plates at a final density of 10,000 cells per well. After overnight incubation in complete medium, cells were treated with different concentrations of PI3Kα inhibitors for 2 h. Cells were then fixed using 4% paraformaldehyde at room temperature for 20 min. Aspirate 4% paraformaldehyde, and wash cells using 1× regular phosphate buffered saline 3 times, 5 min each. Aspirate any residual phosphate buffered saline and block cells using 10% goat serum containing 1% bovine serum albumin and 0.3% Triton X-100 at room temperature for 1 h. Without any additional washing, primary antibodies (rabbit anti-pSer473 AKT) were diluted using blocking buffer and added at a final volume of 50 microliter per well. Keep assay plates with primary antibodies overnight at 4° C. Wash cells using 1× regular phosphate buffered saline 3 times, 5 min each. After the final wash, incubate cells with horseradish peroxidase-conjugated secondary antibodies (goat Anti-rabbit IgG) diluted using the same blocking buffer at room temperature for 1 h. Wash cells thoroughly using 1× regular phosphate buffered saline 3 times, 5 min each. Aspirate any residual phosphate buffered saline. Add Super-Signal ELISA Pico Chemiluminescent Substrate at a final volume of 100 microliter per well. Read plates on i3x Multi-Mode Microplate Reader and calculate IC50 values using GraphPad Prism software.

[1] = system: MCF7 (PIK3CA E545K) cells; test: pS473 AKT assay, MCF7 cells; conditions: Homo sapiens, pSer473 AKT, complete medium with 10% fetal bovine serum, 2 h treatment, read-out: MCF7_IC50
Procedure: as §1, §2

[2] = system: T47D (PIK3CA H1047R) cells; test: pS473 AKT assay, T47D cells; conditions: Homo sapiens, pSer473 AKT, complete medium with 10% fetal bovine serum, 2 h treatment, read-out: T47D_IC50
Procedure: as §1, §2

| Structure (SMILES) | IC50 (SKBR3 (PIK3CA WT) cells) [µM] | IC50 [1] [µM] | IC50 [2] [µM] |
| --- | --- | --- | --- |
| Cc1cc(C(C)Nc2ccccc2C(=O)O)c2c(c1)c(=O)n(C)c1ccnn21 (stereo not drawn) [Compound I-1, 2-((1-(4,7-dimethyl-5-oxo-4,5-dihydropyrazolo[1,5-a]quinazolin-9-yl)ethyl)amino)benzoic acid] | > 30 | > 30 | 1 to 5 |
| Cc1cc(C(C)Nc2ccccc2C(=O)O)c2c(c1)c(=O)n(C)c1c(-c3ccccc3)cnn21 (stereo not drawn) [Compound I-2, 2-((1-(4,7-dimethyl-5-oxo-3-phenyl-4,5-dihydropyrazolo[1,5-a]quinazolin-9-yl)ethyl)amino)benzoic acid] | > 30 | > 30 | 1 to 5 |
| C=Cc1cnn2c3c(C(C)Nc4ccccc4C(=O)O)cc(C)cc3c(=O)n(C)c12 (stereo not drawn) [Compound I-3, 2-((1-(4,7-dimethyl-5-oxo-3-vinyl-4,5-dihydropyrazolo[1,5-a]quinazolin-9-yl)ethyl)amino)benzoic acid] | > 30 | > 30 | 1 to 5 |
